According to PMC7256108 (Cellular and Molecular Life Sciences: CMLS, 2019):
Positions count from the first letter of the chain named. Like-named read-outs stand apart in the source and are kept apart here.

Columns and labels:
Format in all cases: cell-based
OR2W1 L202C = target: T1, OR2W1 L202C (Homo sapiens, UniProt Q9Y3N9, L202C); assay: GloSensor assay, OR2W1 L202C
T1 construct: full-length gene-specific forward and reverse primers were added; 39aa rho-tag; expressed in transfected cells; host or cells: NxG 108CC15 or HEK-293 cells
T1 sequence (Q9Y3N9 1-320 L202C): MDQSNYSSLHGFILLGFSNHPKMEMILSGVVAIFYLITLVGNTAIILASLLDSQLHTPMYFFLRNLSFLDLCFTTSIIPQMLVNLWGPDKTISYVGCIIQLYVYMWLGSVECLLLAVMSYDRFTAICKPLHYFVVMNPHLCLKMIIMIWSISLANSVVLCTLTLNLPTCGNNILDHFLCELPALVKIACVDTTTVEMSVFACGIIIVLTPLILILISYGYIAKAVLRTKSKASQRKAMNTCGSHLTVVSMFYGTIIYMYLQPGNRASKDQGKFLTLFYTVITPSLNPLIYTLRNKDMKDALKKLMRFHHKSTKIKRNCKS
Description: (§1) All receptor variants used were generated by PCR-based site-directed mutagenesis in two steps. Gene-specific primers (mutation primers) were used according to Table S2 and Table S3. The mutation primers, which carried the changed nucleotides, were designed overlapping.
(§2) The assay was performed as reported above.
(§3) All data are presented as mean ± SD.

OR2W1 L202S = target: T2, OR2W1 L202S (Homo sapiens, UniProt Q9Y3N9, L202S); assay: GloSensor assay, OR2W1 L202S
T2 construct: 39aa rho-tag; expressed in transfected cells; host or cells: NxG 108CC15 or HEK-293 cells
T2 sequence (Q9Y3N9 1-320 L202S): T1 sequence (Q9Y3N9 1-320 L202C) with C202S
Description: as §1, §2, §3

OR2W1 Y252A/Y259A = target: T3, OR2W1 Y252A/Y259A (Homo sapiens, UniProt Q9Y3N9, Y252A/Y259A); assay: GloSensor assay, OR2W1 Y252A/Y259A; conditions: ligands 300 µmol/L
T3 construct: full-length gene-specific forward and reverse primers were added; 39aa rho-tag; expressed in transfected cells; host or cells: NxG 108CC15 or HEK-293 cells
T3 sequence (Q9Y3N9 1-320 Y252A/Y259A): T1 sequence (Q9Y3N9 1-320 L202C) with C202L, Y252A, Y259A
Description: as §1, §2, §3

OR2W1 Y252A = target: T4, OR2W1 Y252A (Homo sapiens, UniProt Q9Y3N9, Y252A); assay: GloSensor assay, OR2W1 Y252A; conditions: ligands 300 µmol/L
T4 construct: 39aa rho-tag; expressed in transfected cells; host or cells: NxG 108CC15 or HEK-293 cells
T4 sequence (Q9Y3N9 1-320 Y252A): T1 sequence (Q9Y3N9 1-320 L202C) with C202L, Y252A
Description: as §1, §2, §3

OR2W1 wt = target: T5, OR2W1 wt (Homo sapiens, UniProt Q9Y3N9); assay: cAMP-luminescence GloSensor assay, recombinant OR2W1 wt
T5 construct: 39aa rho-tag; expressed in transfected cells; host or cells: NxG 108CC15 or HEK-293 cells
T5 sequence (Q9Y3N9 1-320): T1 sequence (Q9Y3N9 1-320 L202C) with C202L
Description: as §2, §3

OR2W1 S109A = target: T6, OR2W1 S109A (Homo sapiens, UniProt Q9Y3N9, S109A); assay: GloSensor assay, OR2W1 S109A
T6 construct: 39aa rho-tag; expressed in transfected cells; host or cells: NxG 108CC15 or HEK-293 cells
T6 sequence (Q9Y3N9 1-320 S109A): T1 sequence (Q9Y3N9 1-320 L202C) with S109A, C202L
Description: as §1, §2, §3

OR2W1 Y259A = target: T7, OR2W1 Y259A (Homo sapiens, UniProt Q9Y3N9, Y259A); assay: GloSensor assay, OR2W1 Y259A; conditions: ligands 300 µmol/L
T7 construct: full-length gene-specific forward and reverse primers were added; 39aa rho-tag; expressed in transfected cells; host or cells: NxG 108CC15 or HEK-293 cells
T7 sequence (Q9Y3N9 1-320 Y259A): T1 sequence (Q9Y3N9 1-320 L202C) with C202L, Y259A
Description: as §1, §2, §3

OR1A1 wt = target: T8, OR1A1 wt (Homo sapiens, UniProt Q9P1Q5); assay: cAMP-luminescence GloSensor assay, recombinant OR1A1 wt; conditions: for EC50: OR1A1 wt
T8 construct: 39aa rho-tag; expressed in transfected cells; host or cells: NxG 108CC15 or HEK-293 cells
T8 sequence (Q9P1Q5 1-309): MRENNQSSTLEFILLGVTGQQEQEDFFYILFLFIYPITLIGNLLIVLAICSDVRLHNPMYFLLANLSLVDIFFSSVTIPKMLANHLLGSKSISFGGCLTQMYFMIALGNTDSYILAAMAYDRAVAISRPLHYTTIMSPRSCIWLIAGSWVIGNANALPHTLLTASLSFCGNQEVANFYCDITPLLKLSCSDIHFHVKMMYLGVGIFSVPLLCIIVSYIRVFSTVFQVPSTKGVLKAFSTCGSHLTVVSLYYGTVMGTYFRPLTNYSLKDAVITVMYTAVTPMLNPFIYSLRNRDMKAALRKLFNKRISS
Description: as §2, §3

OR2T11 C119R = target: T9, OR2T11 C119R (Homo sapiens, UniProt Q8NH01, C119R); assay: GloSensor assay, OR2T11 C119R
T9 construct: expressed in transfected cells; host or cells: NxG 108CC15 or HEK-293 cells
T9 sequence (Q8NH01 whole entry C119R): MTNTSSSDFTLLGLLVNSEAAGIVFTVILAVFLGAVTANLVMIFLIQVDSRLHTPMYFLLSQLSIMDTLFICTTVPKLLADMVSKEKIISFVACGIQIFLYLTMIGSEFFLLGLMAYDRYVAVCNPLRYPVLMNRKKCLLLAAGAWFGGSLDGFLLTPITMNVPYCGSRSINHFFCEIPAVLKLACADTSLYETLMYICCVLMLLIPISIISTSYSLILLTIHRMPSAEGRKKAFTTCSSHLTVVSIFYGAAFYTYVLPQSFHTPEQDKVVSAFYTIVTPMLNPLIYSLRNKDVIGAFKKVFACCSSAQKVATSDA
Source text: as §3
Concentration-response relation of 3-mercapto-2-methylpentan-1-ol on OR2M3 in the absence or presence of each 30 µmol/L CuCl2 (a), and 30 µmol/L CuCl2 and the copper chelator TEPA (b). Concentration-response relation of 2-methylpropane-2-thiol on OR2T11 C119R in the absence or presence of 30 µmol/L CuCl2 (c). Concentration-response relation of 3-mercapto-2-methylpentan-1-ol on OR2M3 in the absence or presence of each 30 µmol/L FeCl3 (d); NiCl2 (e); CoCl2 (f); ZnSO4 (g); AgAc (h); AgNO3 (i) and colloidal silver (j). Comparison of efficacies of 20 µmol/L 3-mercapto-2-methylpentan-1-ol on OR2M3 in the absence or presence of different metal ions at 30 µmol/L (k). Note that the same data set in the absence of supplemented Cu^2+ (grey) is given in sub-panels (a-b, d-j) for didactic reasons. Data were mock control-subtracted, normalized to the OR2M3 wt signal in response to 3-mercapto-2-methylpentan-1-ol (20 µmol/L), measured in the absence of Cu^2+ (a-b, d-k) or rather normalized to the OR2T11 C119R signal in response to 2-methylpropan-2-thiol (100 µmol/L), measured in the presence of Cu^2+ (c), and shown as mean ± SD (n = 3 – 6). RLU = relative luminescence unit. 3MMP = 3-mercapto-2-methylpentan-1-ol. Note that for didactical reasons the concentration-response relations in Fig. 1b and Fig. S5a are the identical data set. […]

[1] = target: sphingosine-1-phosphate receptor 4 (S1P4); assay: cAMP-luminescence GloSensor assay, endogenously expressed S1P4; conditions: footnote b: EC50 in nmol/L
Description: as §2, §3

OR2M3 wt = target: T10, OR2M3 wt (Homo sapiens, UniProt Q8NG83); assay: cAMP-luminescence GloSensor assay, recombinant OR2M3 wt; conditions: no odorant
T10 construct: full-length gene-specific forward and reverse primers were added; 39aa rho-tag; expressed in transfected cells; host or cells: NxG 108CC15 or HEK-293 cells
T10 sequence (Q8NG83 1-312): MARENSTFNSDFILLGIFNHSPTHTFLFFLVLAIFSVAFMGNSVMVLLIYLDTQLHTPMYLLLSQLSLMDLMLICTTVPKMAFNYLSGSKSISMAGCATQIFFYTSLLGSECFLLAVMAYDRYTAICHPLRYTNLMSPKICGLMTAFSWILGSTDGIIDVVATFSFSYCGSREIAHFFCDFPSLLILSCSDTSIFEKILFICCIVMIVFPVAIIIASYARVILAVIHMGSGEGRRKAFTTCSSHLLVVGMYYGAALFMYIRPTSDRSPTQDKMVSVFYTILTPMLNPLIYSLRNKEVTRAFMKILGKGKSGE
Description: as §2, §3

[2] = 10 µmol/L Cu^2+, read-out: EC50 in the presence of Cu^2+
[3] = read-out: EC50 in the absence of Cu^2+
[4] = mean ± SD (n = 3–5), read-out: EC50 in the absence of Cu^2+
[5] = EC50 in the presence of Cu^2+, 10 µmol/L Cu^2+

In the case of `SCCc1ccccc1` [2-Phenylethanethiol, 2-phenylethanethiol], the EC50 (OR2W1 L202C; [2]) is reported as 63.4 ± 3.77 µM, the EC50 (OR2W1 L202C; [3]) is reported as 65.1 ± 10.8 µM and the EC50 (OR2W1 L202S; [2]) is reported as 96.7 ± 4.66 µM. For the same compound, the EC50 (OR2W1 L202S; [3]) was 97 ± 13 µM, the “agonist function in mutant receptor” value (OR2W1 Y252A/Y259A) was “non-functional” and the “agonist function in mutant receptor” value (OR2W1 Y252A) was “non-functional”. It also gave an EC50 (OR2W1 wt; [2]) of 106.2 ± 0.93 µM, an EC50 (OR2W1 wt; [4]) of 37.8 ± 0.62 µM and an EC50 (OR2W1 S109A; [2]) of 38.9 ± 5.38 µM. For the same compound, the EC50 (OR2W1 S109A; [3]) was 34.4 ± 9.98 µM, the “agonist function in mutant receptor” value (OR2W1 Y259A) was “non-functional” and the EC50 (OR1A1 wt; [2]) was 73.1 ± 16.4 µM. For the same compound, the EC50 (OR1A1 wt; [3]) was 206 ± 21.5 µM and the “efficacy in activating OR1A1” value (OR1A1 wt; presence of Cu^2+ at 10 µmol/L) was “reduced”.

For `CC(C)(C)S` [2-methylpropane-2-thiol], the Relative amplitude (OR2T11 C119R; 30 µmol/L CuCl2, normalized to OR2T11 C119R signal (100 µmol/L agonist) in the presence of Cu^2+) was 1 and the EC50 (OR2T11 C119R; presence of 30 µmol/L CuCl2 (footnote d)) was 0.25 ± 0.19 µM.

With `CCCC(S)CCOC(C)=O` (stereo not shown) [3-Mercaptohexyl acetate, 3-mercaptohexyl acetate] the EC50 (OR2W1 L202C; [2]) was 114 ± 10.5 µM, the EC50 (OR2W1 L202C; [3]) was 98.9 ± 7.49 µM and the EC50 (OR2W1 L202S; [2]) was 311 ± 22.1 µM. For the same compound, the EC50 (OR2W1 L202S; [3]) was 146 ± 6.48 µM, the “agonist function in mutant receptor” value (OR2W1 Y252A/Y259A) was “non-functional” and the “agonist function in mutant receptor” value (OR2W1 Y252A) was “non-functional”. For the same compound, the EC50 (OR2W1 wt; [2]) was 121 ± 1.59 µM, the EC50 (OR2W1 wt; [4]) was 132 ± 20.9 µM and the EC50 (OR2W1 S109A; [2]) was 127 ± 84.9 µM. For the same compound, the EC50 (OR2W1 S109A; [3]) was 146 ± 23 µM, the “agonist function in mutant receptor” value (OR2W1 Y259A) was “non-functional” and the EC50 (OR1A1 wt; [2]) was 354 ± 113 µM. For the same compound, the EC50 (OR1A1 wt; [3]) was 405 ± 86.7 µM.

With `C=C(C)[C@@H]1CC=C(C)C(=O)C1` [(R)-(-)-Carvone, (R)-(-)-carvone] the EC50 (OR1A1 wt; [2]) was 159 ± 43.1 µM and the EC50 (OR1A1 wt; [3]) was 126 ± 34.1 µM.

With `C=CCOC(=O)Cc1ccccc1` [Allyl phenyl acetate, allyl phenyl acetate] the EC50 (OR2W1 L202C; EC50 in the absence of Cu^2+) was 130 ± 82.5 µM, the EC50 (OR2W1 L202C; [5]) was 73 ± 42.1 µM and the EC50 (OR2W1 L202S; EC50 in the absence of Cu^2+) was 37.6 ± 11.7 µM. The EC50 (OR2W1 L202S; [5]) was 46 ± 14.3 µM, the “agonist function in mutant receptor” value (OR2W1 Y252A/Y259A) was “non-functional” and the “agonist function in mutant receptor” value (OR2W1 Y252A) was “non-functional”. It also gave an EC50 (OR2W1 wt; EC50 in the absence of Cu^2+, mean ± SD (n = 3–5)) of 64.4 ± 3.58 µM, an EC50 (OR2W1 wt; [5]) of 55.2 ± 8.59 µM and an EC50 (OR2W1 S109A; EC50 in the absence of Cu^2+) of 46 ± 11.6 µM. For the same compound, the EC50 (OR2W1 S109A; [5]) was 119 ± 19.9 µM and the “agonist function in mutant receptor” value (OR2W1 Y259A) was “non-functional”.

Work on `COCCN=C1S/C(=C\c2cc(C)n(-c3ccc(F)cc3F)c2C)C(=O)N1C` [CYM50308] yielded an EC50 [1, 2] of 0.344 ± 0.091 µM and an EC50 [1, 3] of 0.517 ± 0.0746 µM.

For `[Cl][Cu][Cl]` [Cu^2+, copper(II) chloride], the “odorant-independent constitutive activity of OR2M3” value (OR2M3 wt; Cu^2+ supplementation > 10 µmol/L) was “decreased” and the “basal activity of OR2M3” value (OR2M3 wt; Cu^2+ supplementation of 10 µmol/L) was “did not inhibit”.
